According to patent US8357694B2, “Substituted 5,6-dihydro-6-phenylbenzo[F]isoquinolin-2-amine compounds” (ArQule, Inc., priority 2008, dated 2013):

Assays:
Type in all cases: cell-based
KATO III = experiment: MTS assay, KATO III
Procedure: (§1) Cells were maintained at 37° C., 5% CO2 in DMEM media supplemented with 1% fetal bovine serum, penicillin/streptomycin and fungizone (Invitrogen). Cells were seeded into 96-well tissue culture plates at 3000 per well and cultured at 37° C. for 18 hours. Test compounds were dissolved and diluted to 300× in DMSO then diluted 1:40 in DMEM.

DLD-1 = experiment: MTS cell kill, DLD-1
Procedure: as §1

MDA-MB-231 = experiment: MTS cell kill, MDA-MB-231
Procedure: as §1

NCI-H1299 = experiment: MTS cell kill, NCI-H1299
Procedure: as §1

PACA-2 = experiment: MTS cell kill, PACA-2
Procedure: as §1

PC-3 = experiment: MTS cell kill, PC-3
Procedure: as §1
Note: test concentration or dose not given here.

## CN(C)CCCCNc1ncc2c(n1)-c1ccccc1C(c1ccc(NS(=O)(=O)c3cccc4cccnc34)cc1)C2 (stereo not shown) [Example 434, N-[4-(2-{[4-(dimethylamino)butyl]amino}-5,6-dihydrobenzo[h]quinazolin-6-yl)phenyl]quinoline-8-sulfonamide]
KATO III
  MTS cell kill data (% inhibition) KATO III: A (A = 80-100% inhibition)
DLD-1
  MTS cell kill data (% inhibition) DLD-1: A (A = 80-100% inhibition)
MDA-MB-231
  MTS cell kill data (% inhibition) MDA-MB-231: A (A = 80-100% inhibition)
NCI-H1299
  MTS cell kill data (% inhibition) NCI-H1299: A (A = 80-100% inhibition)
PACA-2
  MTS cell kill data (% inhibition) PACA-2: A (A = 80-100% inhibition)
PC-3
  MTS cell kill data (% inhibition) PC-3: A (A = 80-100% inhibition)

## CCCc1ccc(CNc2ccc(C3Cc4cnc(NCCCN5CCN(C)CC5)nc4-c4ccccc43)cc2)cc1 (stereo not shown) [Example 569, N-[3-(4-methylpiperazin-1-yl)propyl]-6-{4-[(4-propylbenzyl)amino]phenyl}-5,6-dihydrobenzo[h]quinazolin-2-amine]
KATO III
  MTS cell kill data (% inhibition) KATO III: A (A = 80-100% inhibition)
DLD-1
  MTS cell kill data (% inhibition) DLD-1: A (A = 80-100% inhibition)
MDA-MB-231
  MTS cell kill data (% inhibition) MDA-MB-231: A (A = 80-100% inhibition)
NCI-H1299
  MTS cell kill data (% inhibition) NCI-H1299: A (A = 80-100% inhibition)
PACA-2
  MTS cell kill data (% inhibition) PACA-2: A (A = 80-100% inhibition)

## CN(C)CCCCNc1ncc2c(n1)-c1ccccc1C(c1ccc(NS(=O)(=O)c3ccc(C(C)(C)C)cc3)cc1)C2 (stereo not shown) [Example 435, 4-tert-butyl-N-[4-(2-{[4-(dimethylamino)butyl]amino}-5,6-dihydrobenzo[h]quinazolin-6-yl)phenyl]benzenesulfonamide]
KATO III
  MTS cell kill data (% inhibition) KATO III: A (A = 80-100% inhibition)
DLD-1
  MTS cell kill data (% inhibition) DLD-1: A (A = 80-100% inhibition)
MDA-MB-231
  MTS cell kill data (% inhibition) MDA-MB-231: A (A = 80-100% inhibition)
NCI-H1299
  MTS cell kill data (% inhibition) NCI-H1299: A (A = 80-100% inhibition)
PACA-2
  MTS cell kill data (% inhibition) PACA-2: A (A = 80-100% inhibition)
PC-3
  MTS cell kill data (% inhibition) PC-3: A (A = 80-100% inhibition)

## CN(C)CCCCNc1ncc2c(n1)-c1ccccc1C(c1ccc(NC(=O)c3ccccc3Br)cc1)C2 (stereo not shown) [Example 466, 2-bromo-N-[4-(2-{[4-(dimethylamino)butyl]amino}-5,6-dihydrobenzo[h]quinazolin-6-yl)phenyl]benzamide]
KATO III
  MTS cell kill data (% inhibition) KATO III: A (A = 80-100% inhibition)
DLD-1
  MTS cell kill data (% inhibition) DLD-1: A (A = 80-100% inhibition)
MDA-MB-231
  MTS cell kill data (% inhibition) MDA-MB-231: B (B = 50-79% inhibition)
NCI-H1299
  MTS cell kill data (% inhibition) NCI-H1299: A (A = 80-100% inhibition)
PACA-2
  MTS cell kill data (% inhibition) PACA-2: A (A = 80-100% inhibition)
PC-3
  MTS cell kill data (% inhibition) PC-3: B (B = 50-79% inhibition)

## COCC(=O)Nc1ccc(C2Cc3cnc(NCCCCN(C)C)nc3-c3ccccc32)cc1 (stereo not shown) [Example 471, N-[4-(2-{[4-(dimethylamino)butyl]amino}-5,6-dihydrobenzo[h]quinazolin-6-yl)phenyl]-2-methoxyacetamide]
KATO III
  MTS cell kill data (% inhibition) KATO III: A (A = 80-100% inhibition)
DLD-1
  MTS cell kill data (% inhibition) DLD-1: A (A = 80-100% inhibition)
MDA-MB-231
  MTS cell kill data (% inhibition) MDA-MB-231: A (A = 80-100% inhibition)
NCI-H1299
  MTS cell kill data (% inhibition) NCI-H1299: A (A = 80-100% inhibition)
PACA-2
  MTS cell kill data (% inhibition) PACA-2: A (A = 80-100% inhibition)
PC-3
  MTS cell kill data (% inhibition) PC-3: C (C = <50% inhibition)

## Cc1ccc(S(=O)(=O)Nc2ccc(C3Cc4cnc(NCCCCN(C)C)nc4-c4ccccc43)cc2)c(C)c1 (stereo not shown) [Example 423, N-[4-(2-{[4-(dimethylamino)butyl]amino}-5,6-dihydrobenzo[h]quinazolin-6-yl)phenyl]-2,4-dimethylbenzenesulfonamide]
KATO III
  MTS cell kill data (% inhibition) KATO III: A (A = 80-100% inhibition)
DLD-1
  MTS cell kill data (% inhibition) DLD-1: A (A = 80-100% inhibition)
MDA-MB-231
  MTS cell kill data (% inhibition) MDA-MB-231: A (A = 80-100% inhibition)
NCI-H1299
  MTS cell kill data (% inhibition) NCI-H1299: A (A = 80-100% inhibition)
PACA-2
  MTS cell kill data (% inhibition) PACA-2: A (A = 80-100% inhibition)
PC-3
  MTS cell kill data (% inhibition) PC-3: A (A = 80-100% inhibition)

## N#Cc1cccc(NC(=O)N2CCC3(CC2)Cc2cnc(Nc4ccc(N5CCNCC5)cc4)nc2-c2ccccc23)c1 [Example 412, N-(3-cyanophenyl)-2-[(4-piperazin-1-ylphenyl)amino]-1′H,5H-spiro[benzo[h]quinazoline-6,4′-piperidine]-1′-carboxamide]
KATO III
  MTS cell kill data (% inhibition) KATO III: A (A = 80-100% inhibition)
DLD-1
  MTS cell kill data (% inhibition) DLD-1: A (A = 80-100% inhibition)
MDA-MB-231
  MTS cell kill data (% inhibition) MDA-MB-231: A (A = 80-100% inhibition)
NCI-H1299
  MTS cell kill data (% inhibition) NCI-H1299: A (A = 80-100% inhibition)
PACA-2
  MTS cell kill data (% inhibition) PACA-2: A (A = 80-100% inhibition)

## COc1ccc(C(=O)Nc2ccc(C3Cc4cnc(NCCCCN(C)C)nc4-c4ccccc43)cc2)cc1F (stereo not shown) [Example 474, N-[4-(2-{[4-(dimethylamino)butyl]amino}-5,6-dihydrobenzo[h]quinazolin-6-yl)phenyl]-3-fluoro-4-methoxybenzamide]
KATO III
  MTS cell kill data (% inhibition) KATO III: A (A = 80-100% inhibition)
DLD-1
  MTS cell kill data (% inhibition) DLD-1: A (A = 80-100% inhibition)
MDA-MB-231
  MTS cell kill data (% inhibition) MDA-MB-231: B (B = 50-79% inhibition)
NCI-H1299
  MTS cell kill data (% inhibition) NCI-H1299: A (A = 80-100% inhibition)
PACA-2
  MTS cell kill data (% inhibition) PACA-2: A (A = 80-100% inhibition)
PC-3
  MTS cell kill data (% inhibition) PC-3: A (A = 80-100% inhibition)

## CN(C)CCCCNc1ncc2c(n1)-c1ccccc1C(c1ccc(NS(=O)(=O)c3ccc(Br)s3)cc1)C2 (stereo not shown) [Example 427, 5-bromo-N-[4-(2-{[4-(dimethylamino)butyl]amino}-5,6-dihydrobenzo[h]quinazolin-6-yl)phenyl]thiophene-2-sulfonamide]
KATO III
  MTS cell kill data (% inhibition) KATO III: A (A = 80-100% inhibition)
DLD-1
  MTS cell kill data (% inhibition) DLD-1: A (A = 80-100% inhibition)
MDA-MB-231
  MTS cell kill data (% inhibition) MDA-MB-231: A (A = 80-100% inhibition)
NCI-H1299
  MTS cell kill data (% inhibition) NCI-H1299: A (A = 80-100% inhibition)
PACA-2
  MTS cell kill data (% inhibition) PACA-2: A (A = 80-100% inhibition)
PC-3
  MTS cell kill data (% inhibition) PC-3: B (B = 50-79% inhibition)

## CNc1ncc2c(n1)-c1ccccc1C1(CCN(C(=O)Nc3ccc(C#N)cc3)CC1)C2 [Example 397, N-(4-cyanophenyl)-2-(methylamino)-1′H,5H-spiro[benzo[h]quinazoline-6,4′-piperidine]-1′-carboxamide]
KATO III
  MTS cell kill data (% inhibition) KATO III: A (A = 80-100% inhibition)
DLD-1
  MTS cell kill data (% inhibition) DLD-1: B (B = 50-79% inhibition)
MDA-MB-231
  MTS cell kill data (% inhibition) MDA-MB-231: B (B = 50-79% inhibition)
NCI-H1299
  MTS cell kill data (% inhibition) NCI-H1299: C (C = <50% inhibition)
PACA-2
  MTS cell kill data (% inhibition) PACA-2: A (A = 80-100% inhibition)

## CN(C)CCCCNc1ncc2c(n1)-c1ccccc1C(c1ccc(NS(=O)(=O)c3ccc(-c4ccccc4)cc3)cc1)C2 (stereo not shown) [Example 421, N-[4-(2-{[4-(dimethylamino)butyl]amino}-5,6-dihydrobenzo[h]quinazolin-6-yl)phenyl]biphenyl-4-sulfonamide]
KATO III
  MTS cell kill data (% inhibition) KATO III: A (A = 80-100% inhibition)
DLD-1
  MTS cell kill data (% inhibition) DLD-1: A (A = 80-100% inhibition)
MDA-MB-231
  MTS cell kill data (% inhibition) MDA-MB-231: A (A = 80-100% inhibition)
NCI-H1299
  MTS cell kill data (% inhibition) NCI-H1299: A (A = 80-100% inhibition)
PACA-2
  MTS cell kill data (% inhibition) PACA-2: A (A = 80-100% inhibition)
PC-3
  MTS cell kill data (% inhibition) PC-3: A (A = 80-100% inhibition)

## CNc1ncc2c(n1)-c1ccccc1C1(CCN(C(=O)Nc3cccc(Cl)c3)CC1)C2 [Example 408, N-(3-chlorophenyl)-2-(methylamino)-1′H,5H-spiro[benzo[h]quinazoline-6,4′-piperidine]-1′-carboxamide]
KATO III
  MTS cell kill data (% inhibition) KATO III: A (A = 80-100% inhibition)
DLD-1
  MTS cell kill data (% inhibition) DLD-1: A (A = 80-100% inhibition)
MDA-MB-231
  MTS cell kill data (% inhibition) MDA-MB-231: C (C = <50% inhibition)
NCI-H1299
  MTS cell kill data (% inhibition) NCI-H1299: C (C = <50% inhibition)
PACA-2
  MTS cell kill data (% inhibition) PACA-2: A (A = 80-100% inhibition)

## Cc1ccc(F)c(CNc2ccc(C3Cc4cnc(NCCCN5CCN(C)CC5)nc4-c4ccccc43)cc2)c1 (stereo not shown) [Example 570, 6-{4-[(2-fluoro-5-methylbenzyl)amino]phenyl}-N-[3-(4-methylpiperazin-1-yl)propyl]-5,6-dihydrobenzo[h]quinazolin-2-amine]
KATO III
  MTS cell kill data (% inhibition) KATO III: A (A = 80-100% inhibition)
DLD-1
  MTS cell kill data (% inhibition) DLD-1: A (A = 80-100% inhibition)
MDA-MB-231
  MTS cell kill data (% inhibition) MDA-MB-231: A (A = 80-100% inhibition)
NCI-H1299
  MTS cell kill data (% inhibition) NCI-H1299: A (A = 80-100% inhibition)
PACA-2
  MTS cell kill data (% inhibition) PACA-2: A (A = 80-100% inhibition)

## CNc1ncc2c(n1)-c1ccccc1C1(CCN(C(=O)Nc3ccc(Oc4ccccc4)cc3)CC1)C2 [Example 406, 2-(methylamino)-N-(4-phenoxyphenyl)-1′H,5H-spiro[benzo[h]quinazoline-6,4′-piperidine]-1′-carboxamide]
KATO III
  MTS cell kill data (% inhibition) KATO III: A (A = 80-100% inhibition)
DLD-1
  MTS cell kill data (% inhibition) DLD-1: A (A = 80-100% inhibition)
MDA-MB-231
  MTS cell kill data (% inhibition) MDA-MB-231: A (A = 80-100% inhibition)
NCI-H1299
  MTS cell kill data (% inhibition) NCI-H1299: A (A = 80-100% inhibition)
PACA-2
  MTS cell kill data (% inhibition) PACA-2: A (A = 80-100% inhibition)

## N#Cc1cccc(NC(=O)N2CCC3(CC2)Cc2cnc(Nc4ccc(CO)cc4)nc2-c2ccccc23)c1 [Example 414, N-(3-cyanophenyl)-2-{[4-(hydroxymethyl)phenyl]amino}-1′H,5H-spiro[benzo[h]quinazoline-6,4′-piperidine]-1′-carboxamide]
KATO III
  MTS cell kill data (% inhibition) KATO III: A (A = 80-100% inhibition)
DLD-1
  MTS cell kill data (% inhibition) DLD-1: B (B = 50-79% inhibition)
MDA-MB-231
  MTS cell kill data (% inhibition) MDA-MB-231: B (B = 50-79% inhibition)
NCI-H1299
  MTS cell kill data (% inhibition) NCI-H1299: B (B = 50-79% inhibition)
PACA-2
  MTS cell kill data (% inhibition) PACA-2: A (A = 80-100% inhibition)

## N#Cc1cccc(NC(=O)N2CCC3(CC2)Cc2cnc(Nc4ccc(CCO)cc4)nc2-c2ccccc23)c1 [Example 413, N-(3-cyanophenyl)-2-{[4-(2-hydroxyethyl)phenyl]amino}-1′H,5H-spiro[benzo[h]quinazoline-6,4′-piperidine]-1′-carboxamide]
KATO III
  MTS cell kill data (% inhibition) KATO III: A (A = 80-100% inhibition)
DLD-1
  MTS cell kill data (% inhibition) DLD-1: A (A = 80-100% inhibition)
MDA-MB-231
  MTS cell kill data (% inhibition) MDA-MB-231: A (A = 80-100% inhibition)
NCI-H1299
  MTS cell kill data (% inhibition) NCI-H1299: B (B = 50-79% inhibition)
PACA-2
  MTS cell kill data (% inhibition) PACA-2: A (A = 80-100% inhibition)
